Literature values as cited in PubChem BioAssay AID1259409 (Chemical Carcinogenesis Research Information System (CCRIS), 2018).

System: rodent chemically induced tumor inhibition, incidence and multiplicity
Assay: CCRIS tumor inhibitor studies

## [Cl][Cd][Cl]
Carcinogen: DIETHYLNITROSAMINE, 55-18-5, Dose [Inhibitor]: 0, 500 PPM IN DRINKING WATER BEGINNING 2 WK POST CARCINOGEN DOSE AND CONTINUING FOR DURATION OF STUDY (STUDY DURATION: 5, Route [Inhibitor]: ORAL, Species: MOUSE, Strain/Sex: B6C3F1/MALE, Target Tissue: Type of Lesion: LIVER: TUMOR, Dose [Carcinogen]: 90 MG/KG IN TRICAPRYLIN (5 MG/ML) ONCE, Promoter: NONE USED
  tumour outcome (control, treated, inhibition, significance): 13/45 (29%), 3/42 (7%), 76%, p<0.05
Carcinogen: DIETHYLNITROSAMINE, 55-18-5, Dose [Inhibitor]: 0, 500 PPM IN DRINKING WATER BEGINNING 2 WK POST CARCINOGEN DOSE AND CONTINUING FOR DURATION OF STUDY (STUDY DURATION: 5, Route [Inhibitor]: ORAL, Species: MOUSE, Strain/Sex: B6C3F1/MALE, Target Tissue: Type of Lesion: LUNG: TUMOR, Dose [Carcinogen]: 90 MG/KG IN TRICAPRYLIN (5 MG/ML) ONCE, Promoter: NONE USED
  tumour outcome (control, treated, inhibition, significance): 15/45 (33%), 11/42 (26%), 21%, not calculated
Carcinogen: DIETHYLNITROSAMINE, 55-18-5, Dose [Inhibitor]: 0, 1000 PPM IN DRINKING WATER BEGINNING 2 WK POST CARCINOGEN DOSE AND CONTINUING FOR DURATION OF STUDY (STUDY DURATION:, Route [Inhibitor]: ORAL, Species: MOUSE, Strain/Sex: B6C3F1/MALE, Target Tissue: Type of Lesion: LIVER: TUMOR, Dose [Carcinogen]: 90 MG/KG IN TRICAPRYLIN (5 MG/ML) ONCE, Promoter: NONE USED
  tumour outcome (control, treated, inhibition, significance): 13/45 (29%), 0/47 (0%), 100%, p<0.05
Carcinogen: DIETHYLNITROSAMINE, 55-18-5, Dose [Inhibitor]: 0, 1000 PPM IN DRINKING WATER BEGINNING 2 WK POST CARCINOGEN DOSE AND CONTINUING FOR DURATION OF STUDY (STUDY DURATION:, Route [Inhibitor]: ORAL, Species: MOUSE, Strain/Sex: B6C3F1/MALE, Target Tissue: Type of Lesion: LUNG: TUMOR, Dose [Carcinogen]: 90 MG/KG IN TRICAPRYLIN (5 MG/ML) ONCE, Promoter: NONE USED
  tumour outcome (control, treated, inhibition, significance): 15/45 (33%), 1/47 (2%), 94%, p<0.05

## O=C(CCCN=C=S)c1cccnc1
Carcinogen: 4-(METHYLNITROSAMINO)-1-(3-PYRIDYL)-1-BUTANONE, 64091-91-4, Dose [Inhibitor]: 0, 5 UMOL 1/D FOR 4 D ADMINISTERED PRIOR TO CARCINOGEN DOSE (STUDY DURATION: 116 D), Route [Inhibitor]: GAVAGE, Species: MOUSE, Strain/Sex: STRAIN-A, Target Tissue: Type of Lesion: LUNG: ADENOMA, Dose [Carcinogen]: 10 UMOL IN SALINE ADMINISTERED 2 HR POST LAST AGENT DOSE, Promoter: NONE USED
  tumour outcome (control, treated, inhibition, significance): 100%, 96%, 4%, not significant
Carcinogen: 4-(N-NITROSOMETHYLAMINO)-1-(3-PYRIDYL)-1-BUTANONE, 64091-91-4, Dose [Inhibitor]: 0, 5 UMOL/D FOR 4 CONSECUTIVE DAYS (STUDY DURATION: 16.5 WK), Route [Inhibitor]: GAVAGE, Species: MOUSE, Strain/Sex: STRAIN-A/FEMALE, Target Tissue: Type of Lesion: LUNG: ADENOMA, Dose [Carcinogen]: 10 UMOL ONCE 2 HR POST LAST AGENT DOSE, Promoter: NONE USED
  tumour outcome (control, treated, inhibition, significance): 100%, 96%, 4%, not calculated

## CCCCC/C=C\C/C=C\CCCCCCCC(=O)O
Carcinogen: BENZO[A]PYRENE, 50-32-8, Dose [Inhibitor]: 0, 0.1 ML IN 0.1 ML OLIVE OIL 4 AND 2 D PRIOR TO CARCINOGEN DOSE (CYCLE REPEATED 4 X) (STUDY DURATION: 23 WK), Route [Inhibitor]: GAVAGE, Species: MOUSE, Strain/Sex: ICR/FEMALE, Target Tissue: Type of Lesion: STOMACH: PAPILLOMA, Dose [Carcinogen]: 2 MG IN 0.2 ML OLIVE OIL 1/WK FOR 4 WK
  tumour outcome (control, treated, inhibition, significance): 100%, 90%, 10%, not calculated

## O=C(O)CC(O)(CC(=O)O)C(=O)O
Carcinogen: N-BUTYL-N-(4-HYDROXYBUTYL)NITROSAMINE, 3817-11-6, Dose [Inhibitor]: 4.85% IN BASAL DIET ADMINISTERED SIMULTANEOUSLY WITH CARCINOGEN DOSE FOR 20 WK (STUDY DURATION: 20 WK), Route [Inhibitor]: ORAL, Species: RAT, Strain/Sex: F344/MALE, Target Tissue: Type of Lesion: BLADDER: CARCINOMA, Dose [Carcinogen]: 0.025% IN DRINKING WATER FOR 20 WK, Promoter: NONE USED
  tumour outcome (control, treated, inhibition, significance): 3/15 (20%), 3/15 (20%), 0%, not significant
Carcinogen: N-BUTYL-N-(4-HYDROXYBUTYL)NITROSAMINE, 3817-11-6, Dose [Inhibitor]: 4.85% IN BASAL DIET ADMINISTERED SIMULTANEOUSLY WITH CARCINOGEN DOSE FOR 20 WK (STUDY DURATION: 20 WK), Route [Inhibitor]: ORAL, Species: RAT, Strain/Sex: F344/MALE, Target Tissue: Type of Lesion: BLADDER: PAPILLOMA, Dose [Carcinogen]: 0.025% IN DRINKING WATER FOR 20 WK (FOR A TOTAL INTAKE OF 4.1 MMOL/RAT), Promoter: NONE USED
  tumour outcome (control, treated, inhibition, significance): 4/15 (27%), 2/15 (13%), 50%, not significant
Carcinogen: N-BUTYL-N-(4-HYDROXYBUTYL)NITROSAMINE, 3817-11-6, Dose [Inhibitor]: 6.50% IN BASAL DIET ADMINISTERED SIMULTANEOUSLY WITH CARCINOGEN DOSE FOR 20 WK (STUDY DURATION: 20 WK), Route [Inhibitor]: ORAL, Species: RAT, Strain/Sex: F344/MALE, Target Tissue: Type of Lesion: BLADDER: CARCINOMA, Dose [Carcinogen]: 0.025% IN DRINKING WATER FOR 20 WK, Promoter: NONE USED
  tumour outcome (control, treated, inhibition, significance): 3/15 (20%), 12/15 (80%), -300%, p<0.01
Carcinogen: N-BUTYL-N-(4-HYDROXYBUTYL)NITROSAMINE, 3817-11-6, Dose [Inhibitor]: 6.50% IN BASAL DIET ADMINISTERED SIMULTANEOUSLY WITH CARCINOGEN DOSE FOR 20 WK (STUDY DURATION: 20 WK), Route [Inhibitor]: ORAL, Species: RAT, Strain/Sex: F344/MALE, Target Tissue: Type of Lesion: BLADDER: PAPILLOMA, Dose [Carcinogen]: 0.025% IN DRINKING WATER FOR 20 WK (FOR A TOTAL INTAKE OF 6.8 MMOL/RAT), Promoter: NONE USED
  tumour outcome (control, treated, inhibition, significance): 4/15 (27%), 3/15 (20%), 25%, not significant
Carcinogen: N-ETHYL-N-(4-HYDROXYBUTYL)NITROSAMINE, 54897-62-0, Dose [Inhibitor]: 4.85% IN BASAL DIET ADMINISTERED SIMULTANEOUSLY WITH CARCINOGEN DOSE FOR 20 WK (STUDY DURATION: 20 WK), Route [Inhibitor]: ORAL, Species: RAT, Strain/Sex: F344/MALE, Target Tissue: Type of Lesion: BLADDER: CARCINOMA, Dose [Carcinogen]: 0.021% IN DRINKING WATER FOR 20 WK, Promoter: NONE USED
  tumour outcome (control, treated, inhibition, significance): 13/15 (87%), 14/15 (93%), -8%, not significant
Carcinogen: N-ETHYL-N-(4-HYDROXYBUTYL)NITROSAMINE, 54897-62-0, Dose [Inhibitor]: 4.85% IN BASAL DIET ADMINISTERED SIMULTANEOUSLY WITH CARCINOGEN DOSE FOR 20 WK (STUDY DURATION: 20 WK), Route [Inhibitor]: ORAL, Species: RAT, Strain/Sex: F344/MALE, Target Tissue: Type of Lesion: BLADDER: PAPILLOMA, Dose [Carcinogen]: 0.021% IN DRINKING WATER FOR 20 WK, Promoter: NONE USED
  tumour outcome (control, treated, inhibition, significance): 14/15 (93%), 13/15 (87%), 7%, not significant
Carcinogen: N-ETHYL-N-(4-HYDROXYBUTYL)NITROSAMINE, 54897-62-0, Dose [Inhibitor]: 6.50% IN BASAL DIET ADMINISTERED SIMULTANEOUSLY WITH CARCINOGEN DOSE FOR 20 WK (STUDY DURATION: 20 WK), Route [Inhibitor]: ORAL, Species: RAT, Strain/Sex: F344/MALE, Target Tissue: Type of Lesion: BLADDER: CARCINOMA, Dose [Carcinogen]: 0.021% IN DRINKING WATER FOR 20 WK, Promoter: NONE USED
  tumour outcome (control, treated, inhibition, significance): 13/15 (87%), 15/15 (100%), -15%, not significant
Carcinogen: N-ETHYL-N-(4-HYDROXYBUTYL)NITROSAMINE, 54897-62-0, Dose [Inhibitor]: 6.50% IN BASAL DIET ADMINISTERED SIMULTANEOUSLY WITH CARCINOGEN DOSE FOR 20 WK (STUDY DURATION: 20 WK), Route [Inhibitor]: ORAL, Species: RAT, Strain/Sex: F344/MALE, Target Tissue: Type of Lesion: BLADDER: PAPILLOMA, Dose [Carcinogen]: 0.021% IN DRINKING WATER FOR 20 WK, Promoter: NONE USED
  tumour outcome (control, treated, inhibition, significance): 14/15 (93%), 13/15 (87%), 7%, not significant
Carcinogen: N-ETHYL-N-HYDROXYETHYLNITROSAMINE, 13147-25-6, Dose [Inhibitor]: 0, 5% IN DIET OF UNILATERALLY NEPHRECTOMIZED RATS BEGINNING POST CARCINOGEN TREATMENT AND CONTINUING FOR 18 WK (STUDY DU, Route [Inhibitor]: ORAL, Species: RAT, Strain/Sex: WISTAR/MALE, Target Tissue: Type of Lesion: KIDNEY: RENAL CELL TUMOR, Dose [Carcinogen]: 1000 PPM IN DIET FOR 2 WK, Promoter: POTASSIUM DIBASIC PHOSPHATE, 7758-11-4
  tumour outcome (control, treated, inhibition, significance): 15/15 (100%), 4/14 (29%), 71%, p<0.05

## CC(=O)C1CC2CC1CC2N=C=S (configuration not stated)
Carcinogen: 7,12-DIMETHYLBENZ[A]ANTHRACENE, 57-97-6, Dose [Inhibitor]: 0, 100 UMOL/D IN 0.5 ML EMULPHOR EL-620 FOR 5 CONSECUTIVE DAYS BEGINNING AT 47 D OF AGE (STUDY DURATION: 155 D), Route [Inhibitor]: GAVAGE, Species: RAT, Strain/Sex: SPRAGUE-DAWLEY/FEMALE, Target Tissue: Type of Lesion: MAMMARY GLAND: TUMOR, Dose [Carcinogen]: 8 MG IN 1 ML SESAME OIL ONCE AT 50 D OF AGE, Promoter: NONE USED
  tumour outcome (control, treated, inhibition, significance): 17/25 (68%), 8/20 (40%), 41%, not significant
